# From PMC5906745, “Silencing of Chemosensory Protein Gene NlugCSP8 by RNAi Induces Declining Behavioral Responses of Nilaparvata lugens” (Frontiers in Physiology, 2018)
# Entries after “also recorded” stand apart in the source; their conditions may differ. Like-named read-outs stand apart in the source and are kept apart here.
# Tests used:
# NlugCSP8 [1] = biological target: T1, NlugCSP8 (Nilaparvata lugens, UniProt B7TVH4); experiment: Fluorescence competitive ligand binding assay with 1-NPN probe
# Protocol: The recombinant pET-30a/CSP8 expression plasmid was transformed into Escherichia coli BL21 (DE3) competent cells. After DNA sequencing, a single positive clone was grown in 10 mL Luria-Bertani (LB) medium containing kanamycin (50 μg/mL) with shaking overnight at 220 rpm and 37°C. The culture was diluted to 2 L LB medium (supplemented with 50 μg/mL kanamycin) and grown at 37°C with shaking at 220 rpm until the culture reached the optical density value of ~0.6–0.7 at 600 nm. The recombinant protein expression was induced by the addition of 2 mM IPTG (Isopropyl β-D-1-thiogalactopyranoside), followed by culturing for 4 h at 37°C. The bacterial cells were harvested by centrifugation (10,000 rpm, 10 min) and sonicated. The expressed protein presented in the supernatant as a soluble form. Then, NlugCSP8 purification was performed using a Ni-ion affinity chromatography column (GE Healthcare, Uppsala, Sweden). His-tag was removed from the recombinant protein with the addition of recombinant bovine enterokinase (EK) in the eluted fractions of protein, followed by 16 h incubation at 25°C. After running the digested protein back through the Ni-ion affinity chromatography column, the tag-free protein was obtained in the flow through fraction. Protein expression and purification steps were assessed by 15% SDS-PAGE (sodium dodecyl sulfate-polyacrylamide gel electrophoresis). Finally, purified protein was dialyzed in Tris buffer (pH 5.0) and (pH 7.4). The concentration of purified protein was determined prior to perform ligand-binding specificities of NlugCSP8 with 25 selected ligands at pH 5.0 and pH 7.4.
# Fluorescence-based ligand binding assays were performed based on the method described by Sun X. et al. ([2016]). According to previous studies about the rice-specific volatiles (Fujii et al., [2010]; He et al., [2011]; Yang et al., [2014]; Zhang et al., [2014]), 25 potential ligands were selected for the fluorescence binding assays (Table 1). All the ligands used in this study were purchased from Sigma-Aldrich (St. Louis, MO, USA) and stored according to manufacturer instructions. The ligand binding affinity for various ligands was determined by using the 1-NPN (N-phenyl-1-naphthylamine) as a fluorescent probe. RF-5301PC fluorimeter (Shimadzu, Kyoto, Japan) was used for fluorescence binding assay at 25°C with 10 nm slit width and 1 cm light path quartz cuvette for emission and excitation. The 1-NPN/NlugCSP8 mixture was excited using an excitation wavelength of 337 nm, and the fluorescence intensity was recorded between 350 and 600 nm following an established protocol (Ban et al., [2002]). The 1-NPN and all the potential ligands were prepared in spectrophotometric-grade methanol. The binding constant for 1-NPN was measured by adding aliquots of 1 mM 1-NPN into a 2 μM solution of protein in 30 mM Tris-HCL at room temperature. […] For each test, fluorescence measurement was conducted after the reaction was incubated for 2 min at room temperature (Liu et al., [2015]). Three independent measurements were used to obtain the binding data. 1-NPN/NlugCSP8 dissociation constants (Kd) were calculated from Scatchard plots of the binding data using the Prism 5 software (GraphPad, La Jolla, CA, USA). The curves were linearized using the Scatchard plot program (Campanacci et al., [2001]). The dissociation constants of the competitors were determined by using the corresponding IC50-values according to the equation Ki = [IC50]/ (1+[1-NPN]/K1−NPN), where IC50 represents the concentration of ligand which decreases the fluorescence intensity of [1-NPN], [1-NPN] is the free concentration of 1-NPN and K1−NPN is the dissociation constant of the NlugCSP8/1-NPN complex (Ban et al., [2003]; Tian and Zhang, [2016]). For the reader's convenience, data were recalculated as 1/ki × 1,000, for which a larger value designates a stronger ligand binding affinity.
# Nilaparvata lugens [2] = experiment: H-tube olfactometer behavioral assay; format: in vivo; conditions: macropterous adults, vs liquid paraffin
# Protocol: BPH behavior responses to different ligands were tested in an H-tube olfactometer similar to which previously used by Yi et al. ([2018]) in our laboratory. The H-tube olfactometer mainly consists of two glass tubes (arms) with gauze at its top end. These two glass tubes were connected by another tube (5 cm in diameter, 20 cm long with a hole of 1 cm in the middle for releasing BPH). Twenty macropterous (10 from each sex) BPH adults were introduced into the H-tube and the number of BPH was counted at 30 min after their introduction. Liquid paraffin was used as in control arm. Rubber septa were absorbed in the liquid paraffin and solutions of the odor molecules to be tested (liquid paraffin+ different concentration of tested volatile) and placed at room temperature. After 24 h, one rubber septa from each control and tested volatile was put in each glass arm. After one replication, rubber septa were changed and three treatments (1, 10, and 100 μl/mL) of tested volatiles against macropterous adults were tested in eight replications. After four replications, the H-tube olfactometer was washed with 75% alcohol and the liquid paraffin rubber septa were placed in another arm to complete the other four replications. The impact of NlugCSP8-dsRNA on the preference of N. lugens was also tested by H-tube olfactometer assays. Corresponding control experiments without dsRNA injection were performed to investigate whether the preference of N. lugens was affected by volatile concentration change. Three treatments of BPH (NlugCSP8-dsRNA injected, GFP-dsRNA injected, and without injection) were tested in four replications. As in case of dsRNA injected insects, the concentration of volatiles that have highly significant attractive results on non-injected insects used for dsCSP8 and dsGFP injected insects. In order to evaluate the best RNAi effect, mRNA levels of NlugCSP8-dsRNA injected insects were determined and compared with the GFP-dsRNA-injected and non-injected insects, prior to H-tube olfactometer bioassay. Based on the findings of previous step, we re-inject the BPH and the individuals with the best post-injection RNAi effect after 7-days, were used in the H-tube olfactometer bioassay. Bioassays were performed under controlled conditions at 26 ± 2°C and 75 ± 5% relative humidity.
# NlugCSP7 = tested on: NlugCSP7; set-up: method as in Yang et al., 2014; conditions: ref Yang et al., 2014; cited from earlier work
# Nilaparvata lugens [3] = experiment: H-tube olfactometer assay after RNAi (dsRNA-injected BPH); format: in vivo; conditions: 10 μl/mL (nerolidol), 100 μl/mL (hexanal); compared with controls
# Protocol: BPH behavior responses to different ligands were tested in an H-tube olfactometer similar to which previously used by Yi et al. ([2018]) in our laboratory. The H-tube olfactometer mainly consists of two glass tubes (arms) with gauze at its top end. These two glass tubes were connected by another tube (5 cm in diameter, 20 cm long with a hole of 1 cm in the middle for releasing BPH). Twenty macropterous (10 from each sex) BPH adults were introduced into the H-tube and the number of BPH was counted at 30 min after their introduction. Liquid paraffin was used as in control arm. Rubber septa were absorbed in the liquid paraffin and solutions of the odor molecules to be tested (liquid paraffin+ different concentration of tested volatile) and placed at room temperature. After 24 h, one rubber septa from each control and tested volatile was put in each glass arm. After one replication, rubber septa were changed and three treatments (1, 10, and 100 μl/mL) of tested volatiles against macropterous adults were tested in eight replications. […] In order to evaluate the best RNAi effect, mRNA levels of NlugCSP8-dsRNA injected insects were determined and compared with the GFP-dsRNA-injected and non-injected insects, prior to H-tube olfactometer bioassay. […]
# NlugCSP8 [4] = biological target: T1, NlugCSP8; experiment: Titration of NlugCSP8 with 1-NPN (Scatchard plot); format: binding; conditions: read-out: dissociation constant
# Protocol: Fluorescence-based ligand binding assays were performed based on the method described by Sun X. et al. ([2016]). According to previous studies about the rice-specific volatiles (Fujii et al., [2010]; He et al., [2011]; Yang et al., [2014]; Zhang et al., [2014]), 25 potential ligands were selected for the fluorescence binding assays (Table 1). All the ligands used in this study were purchased from Sigma-Aldrich (St. Louis, MO, USA) and stored according to manufacturer instructions. The ligand binding affinity for various ligands was determined by using the 1-NPN (N-phenyl-1-naphthylamine) as a fluorescent probe. RF-5301PC fluorimeter (Shimadzu, Kyoto, Japan) was used for fluorescence binding assay at 25°C with 10 nm slit width and 1 cm light path quartz cuvette for emission and excitation. The 1-NPN/NlugCSP8 mixture was excited using an excitation wavelength of 337 nm, and the fluorescence intensity was recorded between 350 and 600 nm following an established protocol (Ban et al., [2002]). The 1-NPN and all the potential ligands were prepared in spectrophotometric-grade methanol. The binding constant for 1-NPN was measured by adding aliquots of 1 mM 1-NPN into a 2 μM solution of protein in 30 mM Tris-HCL at room temperature. […] For each test, fluorescence measurement was conducted after the reaction was incubated for 2 min at room temperature (Liu et al., [2015]). […]
# BPH [5] = tested on: BPH; set-up: method as in Obata et al., 1983; conditions: volatile isolated from rice plants; ref Obata et al., 1983; cited from earlier work
# BPH [6] = tested on: BPH; set-up: method as in Hernandez et al., 1989; Youn, 2002; conditions: BPH and some other Hemiptera; ref Hernandez et al., 1989; Youn, 2002; cited from earlier work
# [7] = pH 5.0, calculated from IC50, read-out: Ki
# [8] = pH 7.4, calculated from IC50, read-out: Ki
# [9] = Ki, pH 5.0, calculated from IC50
# [10] = Ki, pH 7.4, calculated from IC50
# T1 sequence (B7TVH4 entry or part of it): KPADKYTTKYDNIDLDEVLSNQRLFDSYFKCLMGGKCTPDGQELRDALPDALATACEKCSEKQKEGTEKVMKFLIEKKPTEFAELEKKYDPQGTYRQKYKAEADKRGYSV
Compound,Ki (NlugCSP8 [1]; [7]) [µM],"IC50 (NlugCSP8 [1]; pH 5.0, read-out: IC50) [µM]",Ki (NlugCSP8 [1]; [8]) [µM],"IC50 (NlugCSP8 [1]; pH 7.4, read-out: IC50) [µM]","IC50 (NlugCSP8 [1]; IC50, pH 5.0) [µM]","IC50 (NlugCSP8 [1]; IC50, pH 7.4) [µM]",Ki (NlugCSP8 [1]; [9]) [µM],Ki (NlugCSP8 [1]; [10]) [µM],other results
C=CC(C)(O)CCC=C(C)CCC=C(C)C (mixture of isomers) [Nerolidol],8.38,9.61,10,12,–,–,–,–,behavioral response of BPH (Nilaparvata lugens [2]; 10 μl/mL): significant attraction; binding affinity with NlugCSP7 (NlugCSP7): weak affinities; behavior response of dsCSP8-injected (RNAi) BPH to attractant (Nilaparvata lugens [3]): attraction activity was completely lost and lost
"CC1=CCC2C(C1)C2(C)C (single isomer, unassigned; (+)) [(+)-3-Carene]",34.8,39.9,27,32.4,–,–,–,–,–
"c1ccc(Nc2cccc3ccccc23)cc1 [1-NPN, N-phenyl-1-naphthylamine]",–,–,–,–,–,–,–,–,Kd (NlugCSP8 [4]; pH 5.0): 6.8 µM; Kd (NlugCSP8 [4]; pH 7.4): 4.99 µM
C=CC(O)CCCCC (centres unmarked) [1-Octen-3-ol],19.2,22.1,19.4,23.3,–,–,–,–,–
CCCCCC(C)O (centres unmarked) [2-Heptanol],9.77,11.2,13.8,16.5,–,–,–,–,behavioral response of BPH (Nilaparvata lugens [2]; concentration not given): significant aversion
CCCCCCCCCCCC(C)=O [2-Tridecanone],10.4,12,12.5,15,–,–,–,–,attraction of BPH (BPH [5]): able to attract BPH; binding affinity with NlugCSP7 (NlugCSP7): relatively weak binding affinity
CCC(O)CC [3-Pentanol],27.4,31.4,19.6,23.5,–,–,–,–,–
Cc1ccc(C(C)C)cc1 [4-Isopropyl to luene],–,–,–,–,22.7,20.3,19.8,16.9,–
CC1=CC[C@](O)(C(C)C)CC1 [(–)-Terpinen-4-ol],–,–,–,–,11.4,19,9.97,15.8,behavioral response of BPH (Nilaparvata lugens [2]; 1 μl/mL): attractive; behavioral response of BPH (Nilaparvata lugens [2]; 10 μl/mL): attractive
CC/C=C\CCO [Cis-3-hexen-1-ol],–,–,–,–,38,27.5,33.1,22.9,–
OC1CCCCC1 [Cyclohexanol],–,–,–,–,95.5,51.2,83.3,42.7,–
CCCCCCCCCCCC=O [Dodecyl aldehyde],28.4,32.6,12.2,14.6,–,–,–,–,–
CCCCCCCCCCCCCCCCCCCC [Eicosane],12.2,14,12.4,14.9,–,–,–,–,–
CCCCCCCCCCCCCCCC [Hexadecane],23.8,27.3,15.9,19,–,–,–,–,–
CCCCCC=O [Hexanal],–,–,–,–,11,17.3,9.56,14.4,behavioral response of BPH (Nilaparvata lugens [2]; 1 μl/mL): repellency; behavioral response of BPH (Nilaparvata lugens [2]; 10 μl/mL): attraction became weakened; behavioral response of BPH (Nilaparvata lugens [2]; 100 μl/mL): strongly behaved as attractant; binding affinity with NlugCSP7 (NlugCSP7): weak affinities; behavior response of dsCSP8-injected (RNAi) BPH to attractant (Nilaparvata lugens [3]): reduced significantly; also recorded: significantly inhibited; Electroantennogram response (BPH [6]): high Electroantennogram response
C=CC(C)(O)CCC=C(C)C (centres unmarked) [Linalool],–,–,–,–,36.9,23.4,32.2,19.5,–
COC(=O)c1ccccc1 [Methyl benzoate],–,–,–,–,17.8,23.6,15.5,19.6,–
CCCCCCCCCCCCCCCCCCC [Nonadecane],24.6,28.3,14.3,17.2,–,–,–,–,–
C=C(C)[C@H]1CC=C(C)CC1 [R-(+)-limonene],12.6,14.4,13.2,15.9,–,–,–,–,–
CC1=CCC(=C(C)C)CC1 [Terpinolene],–,–,–,–,31.2,25.6,27.2,21.3,–
CCC/C=C/CO [Trans-2-hexen-1-ol],–,–,–,–,18.2,25.9,15.9,21.5,–
CCC/C=C/C=O [Trans-2-hexenal],–,–,–,–,11.6,28,< 10,23.3,behavioral response of BPH (Nilaparvata lugens [2]; concentration not given): significant aversion
CC1=CC=C(C(C)C)CC1 [α-Terpinene],–,–,–,–,16.4,16.6,14.3,13.8,–
CC1=CC[C@@H](C(C)(C)O)CC1 [α-Terpineol],–,–,–,–,15.5,24.1,13.5,20.1,–
(–)-Limoonene,17.8,20.4,20.4,24.4,–,–,–,–,–
Farnesene,173,199,44.8,53.8,–,–,–,–,"Ki (NlugCSP8 [1]; pH 5.0, calculated from IC50, listed as farnesene, read-out: Ki): > 40 µM; Ki (NlugCSP8 [1]; pH 7.4, calculated from IC50, listed as farnesene, read-out: Ki): > 40 µM"
